Consider 4 molecules from US5466675A, “Immunological activity of rhamnolipids” (priority 1992, dated 1995).

For experiment [1], the system named is sheep red blood cell (SRBC) hemagglutination. Description: immunostimulation (humoral): sheep red blood cell (SRBC) hemagglutination. The class given is in vivo, mouse (ICR, female). Particulars: IP 30 × 3 mg/kg. As for the experimental part:
(§1) Groups of 6 mice were sensitized by the IV injection of 0.2 ml of a 2% SRBC suspension. On the 9th day following sensitization, blood samples were withdrawn from the orbital sinus and equal parts of complement inactivated serum from the group of 6 mice were pooled to yield a single 0.25 ml sample. Serial 2-fold dilutions were then carried out 10 times in the presence of added complement. […] Serum titers of less than 16 or greater than 128 are considered significant and indicate possible immunosuppressant and immunostimulant activity, respectively.
(§2) For immunostimulant activity, test substance or vehicle was administered i.p. to groups of mice for 3 consecutive days, and sensitized to SRBCs 2 hours after the third (last) injection. For immunosuppressant activity, test substance or vehicle was administered i.p. to groups of mice for 3 consecutive days beginning 2 hours after sensitization to SRBCs.

Experiment [2] concerns Candida albicans. The experiment in a line: immunomodulation: infection with Candida albicans. The class given is in vivo, mouse (ICR, female). Particulars: IP 30 mg/kg. As for the experimental part: The test compound or vehicle was administered i.p. to groups of 10 mice 1 hour before IV, challenge with suspension of C. albicans sufficient to result in 90 to 100% mortality within 10 days in the vehicle treated control group. A greater than 30 percent survival for any treated group is considered very significant, and possibly a result of immunomodulation, while an increase of 20% is considered a moderate immunomodulation activity.

For the next experiment, the system named is phospholipase A2. As to conditions: Japanese patent No. 63 253 025; cited from earlier work.
The subject of experiment [3] is oxazolone-induced delayed type hypersensitivity. The experiment in a line: immunostimulation (cellular): oxazolone-induced delayed type hypersensitivity. The class given is in vivo, mouse. Particulars: IP 100 × 5 mg/kg. As for the experimental part:
The test substance was administered i.p to groups of 5 mice, 1 hour before application (sensitization) of oxazolone (0.1 ml of 5% solution) to the pre-shaven abdominal surface. Seven days later, 25 μl of a 2% solution of oxazolone was applied (challenge) to the right ear, with vehicle being applied to the left ear. After 24 hours, each mouse was sacrificed and ear thickness measured with a Dyer Model micrometer gauge. Greater than 30 percent enhancement is considered immunostimulant activity.

Experiment [4] concerns Candida albicans. Description: immunorestoration: immunosuppression with cyclophosphamide and infection with Candida albicans. The class given is in vivo, mouse (ICR, female). As to conditions: for Survivor No.: n = 10. The text has this:
[…] One day after the last immunosuppressant dose, the mice were challenged with a suspension of C. albicans sufficient to result in 90 to 100 percent mortality within 10 days in the vehicle treated control group. A greater than 30 percent survival for any drug treated group is considered significant, and possibly a result of immunorestorant activity.

The subject of experiment [5] is oxazolone-induced delayed type hypersensitivity. Description: immunosuppression (cellular): oxazolone-induced delayed type hypersensitivity. Particulars: IP 30 × 5 mg/kg. The experiment is classed as in vivo, mouse (ICR, female). As for the experimental part:
The shaved abdominal surface of groups of 5 mice were sensitized by application of 0.1 ml of 5% oxazolone. The test substance was administered i.p after 1 hour and then daily for 5 consecutive doses. After an additional 4 days, the animals were challenged by application of 25 ul of 5% oxazolone to the right ear. Twenty-four hours later, ear thickness was measured with a Dyer Model micrometer gauge.
A 50 percent or greater decrease in drug-treated versus control animals is considered significant immunosuppressant activity.

Experiment [6] deals with sheep red blood cell (SRBC) hemagglutination. The experiment in a line: immunosuppression (humoral): sheep red blood cell (SRBC) hemagglutination. The experiment is classed as in vivo, mouse (ICR, female). As to conditions: IP 30 × 3 mg/kg. As for the experimental part: as §1, §2
Where [7] appears, read: IP 100 × 3 mg/kg + cyclophosphamide.
The mark [8] stands for this setting: cyclophosphamide alone, PO 30 × 3 mg/kg.

As for `c1ccc([C@H]2CN3CCSC3=N2)cc1` [Levamisole, reference compound], in experiment [1], the “SERUM TITER (Reciprocal Serum Dilution)” value was determined as 128. Moreover, in the experiment with Candida albicans [2], the “Death, days post-inoculum 0-1” value is on record as 3 #/10 Mice; the “Death, days post-inoculum 2-3” value is reported as 3 #/10 Mice; the “Death, days post-inoculum 4-6” value is on record as 0 #/10 Mice; the “Death, days post-inoculum 7-9” value was 0 #/10 Mice. Besides, the “Response Inc. %” value with Candida albicans [2] came out at 20%. For the same molecule, the “Survivor No.” value in the experiment with Candida albicans [2] (n = 10) worked out at 4.

Turning to rhamnopyranosyldecanoic acid, the “phospholipase A2 inhibition” value in the experiment on phospholipase A2 is listed as “phospholipase A2 inhibition”.

As to `CC(C)(N1CC1C#N)N1CC1C(N)=O` (stereo not shown) [Azimexone, reference compound], the “Swelling Inc. %” value in experiment [3] is listed as 31%. Also, in experiment [3] (X ± SEM), the “Swelling (R -L)” value is 22.8 +/- 0.9 × 0.01 mm; the “ear thickness, Left Ear (No Oxa.)” value is 21.4 +/- 0.5 × 0.01 mm; the “ear thickness, Right Ear (24 hrs Oxa.)” value is 44.2 +/- 0.7 × 0.01 mm. Besides, in the experiment with Candida albicans [4] (setting [7]), the “Death, days post-inoculum 0-1” value is on record as 2 #/10 Mice; the “Death, days post-inoculum 2-3” value is listed as 1 #/10 Mice; the “Death, days post-inoculum 4-6” value is on record as 1 #/10 Mice; the “Death, days post-inoculum 7-9” value is 1 #/10 Mice. For the same molecule, in the experiment with Candida albicans [4] (setting [7]), the “Response Inc. %” value worked out at 30% and the “Survivor No.” value is listed as 5.

Take `O=P1(N(CCCl)CCCl)NCCCO1` (stereo not shown) [Cyclophosphamide, reference compound]: the “Swelling Inh. %” value in experiment [5] was determined as 59%. In experiment [5] (X +/- SEM), the “Swelling (R -L)” value is on record as 10.6 +/- 1.8 × 0.01 mm; the “ear thickness, Left Ear (No Oxa.)” value is 19.0 +/- 0.4 × 0.01 mm; the “ear thickness, Right Ear (24 hrs Oxa.)” value is recorded as 29.6 +/- 2.2 × 0.01 mm. Also, the “SERUM TITER (Reciprocal Serum Dilution)” value in experiment [6] came to 4. Besides, in the experiment with Candida albicans [4] (setting [8]), the “Death, days post-inoculum 0-1” value is listed as 3 #/10 Mice; the “Death, days post-inoculum 2-3” value is reported as 2 #/10 Mice; the “Death, days post-inoculum 4-6” value is on record as 2 #/10 Mice; the “Death, days post-inoculum 7-9” value is listed as 1 #/10 Mice. Besides, the “Survivor No.” value in the experiment with Candida albicans [4] (setting [8]) stood at 2.
